According to US12054562B2, “Cell-permeable inhibitory agent and methods of use thereof in treatment of cognitive and mood disorders” (priority 2015, dated 2024):

Columns and labels:
[1] = biological target: T1, α5 subunit-radixin interaction (Mus musculus, UniProt P26043); assay: Co-immunoprecipitation and Western blot of α5 subunit-radixin coupling in hippocampal tissue lysate; format: binding; conditions: 20 μM peptide without TAT sequence, one hour incubation
T1 construct: tissue lysate prepared from the hippocampus of adult mice; from tissue; host or cells: hippocampus of adult mice (C57BL/6J×SvEv)
T1 sequence (P26043 whole entry): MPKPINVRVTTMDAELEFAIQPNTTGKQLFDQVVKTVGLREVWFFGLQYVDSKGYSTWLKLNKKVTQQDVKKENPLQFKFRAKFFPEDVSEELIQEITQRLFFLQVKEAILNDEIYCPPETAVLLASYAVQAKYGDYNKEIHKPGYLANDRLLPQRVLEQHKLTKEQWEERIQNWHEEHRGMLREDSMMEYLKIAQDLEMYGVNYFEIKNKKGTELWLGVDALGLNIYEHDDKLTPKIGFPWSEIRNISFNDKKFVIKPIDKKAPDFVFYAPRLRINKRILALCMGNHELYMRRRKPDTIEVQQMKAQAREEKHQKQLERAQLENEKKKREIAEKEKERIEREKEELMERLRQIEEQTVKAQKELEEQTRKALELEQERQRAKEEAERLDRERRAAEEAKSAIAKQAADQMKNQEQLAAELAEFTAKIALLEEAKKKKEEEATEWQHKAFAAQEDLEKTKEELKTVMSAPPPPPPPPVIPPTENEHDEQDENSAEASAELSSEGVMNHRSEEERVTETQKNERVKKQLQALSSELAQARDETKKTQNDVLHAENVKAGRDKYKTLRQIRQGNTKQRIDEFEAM
Protocol: The experiments used tissue lysate prepared from the hippocampus of adult mice (C57BL/6J×SvEv, 2-4 month old, male). Hippocampal tissue was homogenized in ice-cold RIPA buffer (20 mM Tris-HCL, pH 7.5, 150 mM NaCl, 1 mM Na2EDTA, 1 mM EGTA, 1% NP-40, 1% sodium deoxycholate, 2.5 mM sodium pyrophosphate, 1 mM β-glycerophosphate) supplemented with 1 mM sodium orthovanadate and 1% protease inhibitor cocktail and 1% phosphatase inhibitor cocktail (Roche Diagnostics, GmbH, Manheim Germany). The tissue lysate was subsequently spun at 14,000 rpm for 30 min with the Microfuge 22R Centrifuge (Beckman Coulter™, Brea, California, US). The supernatant was collected and frozen at −20 C°. The next day, the supernatant, after thawing, was re-centrifuged at 14,000 rpm for another 30 min to clear the potential undissolved or pellet substances. After spinning twice, the supernatant was collected for subsequent experiments.
One hour following the incubation, the antibodies (2-4 μg) against either α5 subunit (cat #sc—31417, Santa Cruz Biotechnology, Inc., 10410 Finnell St. Dallas, TX, 75220, USA) or radixin (cat #ab91312, Abcam Inc., c/o 913860, PO Box 4090 Stn A, Toronto, ON M5W 0E9), or 4 μg of non-specific IgG protein (cat #sc—2028, Santa Cruz Biotechnology, Inc., 10410 Finnell St. Dallas, TX, 75220, USA), were added to the lysate solution. […]

[2] = system: etomidate-induced memory deficits in mice; assay: Novel object recognition task, prevention paradigm; format: in vivo, mouse; conditions: Etom 8 mg/kg plus α5 peptide 20 mg/kg i.p., NOR next day
Excerpt: The novel object recognition task involves the presentation of two identical objects for visual inspection (in the case of humans and non-human primates) and exploration in the case of rodents. After a delay, one of the original objects is presented together with a new (novel) object. Humans and animals normally spend time more time looking at (or in the case of mice, exploring) the novel object. Indeed, the test relies on the innate preference of humans and animals for novelty. The inspection or interaction time differs only if the familiar object is recognized. Otherwise, the subject spends an equal amount of time inspecting both objects. […]
In the present study, mice were handled two times a day, 5 min each before start of behavioral experiments. Object recognition was assessed in a circle opaque chamber with the diameter of 38.5 cm in a regular lit room. […] Movement and interaction with the objects was recorded with a video camera that was mounted above the chamber. The exploratory behavior and mouse activity was analyzed blindly by a person with a good training and the software EthoVision, XT v11.5 provided by the Noldus Information Tech Inc., (Leesburg VA, USA). […] Memory was assessed by measuring the novelty preference ratio (i.e., the ratio of time spent exploring the novel object to the time spent exploring both objects). […]

NYFTKRGWAWDGKKAL [inhibitory peptide] was tested, and the “association between α5 subunit and radixin” value [1] was “reduced the association” and the “etomidate-induced memory deficits (NOR, prevention)” value [2] was “could prevent”.
